Data published in patent US20030100515A1, “Benzophenone glycopyranosides, preparation and therapeutic use” (priority 1999, published 2003).
Marks after values point to notes of the source that are not given here.

Tested on: female mice of the C57BL/6J strain
Experiment: Lowering of serum cholesterol level in mice subjected to a fatty diet (single oral dose)
Type: in vivo
Details: total serum cholesterol, female C57BL/6J mice on fatty diet (1.25% cholesterol, 0.5% cholic acid)
Description: The antiatheromatous activity of the compounds according to the invention was evaluated as a function of their ability to lower the serum cholesterol level in mice subjected to a fatty diet. […] This correlation affords a test which is more rapid than direct experiments on the atheromatous plaque, which require a lengthy treatment of the animals and an expensive histological study of the walls of the aortic arch.
The test used consists in administering a single dose of the compound to female mice of the C57BL/6J strain. The protocol is as follows: On the first day (D0), the mice are fasted from 9 am to 5 pm, a blood sample being taken at 2 pm. At 5 pm, a given amount of food (a fatty diet comprising 1.25% of cholesterol and 0.5% of cholic acid) is distributed. On the second day (D1), the food leftovers are weighed at 9 am and the mice are fasted from 9 am to 2 pm. A blood sample is taken at 2 pm. For the treated groups of mice, the compound is administered at 9 am on the second day (D1) by tubage in the form of a suspension in a 3% aqueous solution of gum. The control groups receive only the aqueous gum.
[…] The total serum cholesterol is assayed and the results are expressed as the percentage inhibition of the increase in cholesterolemia compared with the control group.

[1] = single dose 100 mg/kg by tubage

Compound | Activity (%): percentage inhibition of the increase in cholesterolemia compared with the control group [1] | Activity (%): percentage inhibition of the increase in cholesterolemia compared with the control group (single dose 10 mg/kg by tubage)
N#Cc1ccc(C(=O)c2ccc(O[C@@H]3OC[C@@H](O)[C@H](O)[C@@H]3O)cc2)cc1 [Example 3, [4-(4-Cyanobenzoyl)phenyl] β-D-lyxopyranoside] | −28% | 
N#Cc1ccc(C(=O)c2ccc(O[C@@H]3O[C@H](CO)[C@@H](O)[C@H](O)[C@@H]3O)cc2)cc1 [Example 9, [4-(4-Cyanobenzoyl)phenyl] β-D-mannopyranoside] | −39% | 
N#Cc1ccc(C(=O)c2ccc(O[C@@H]3OC[C@@H](O)[C@@H](O)[C@@H]3O)cc2)cc1 [Example 2, [4-(4-Cyanobenzoyl)phenyl] β-D-arabinopyranoside] | −29% | 
CC(=O)O[C@@H]1[C@@H](OC(C)=O)[C@H](C)O[C@H](Oc2ccc(C(=O)c3ccc(C#N)cc3)cc2)[C@@H]1OC(C)=O [Example 16, [4-(4-Cyanobenzoyl)phenyl] 2,3,4-tri-O-acetyl-β-L-rhamnopyranoside] | −37% | 
CC(=O)O[C@@H]1[C@@H](Oc2ccc(C(=O)c3ccc(C#N)cc3)cc2)OC[C@H](OC(C)=O)[C@H]1OC(C)=O [Example 12, [4-(4-Cyanobenzoyl)phenyl] 2,3,4-tri-O-acetyl-β-L-xylopyranoside] | −45% | 
CC(=O)OC[C@H]1O[C@@H](Oc2ccc(C(=O)c3ccc(C#N)cc3)cc2)[C@@H](OC(C)=O)[C@@H](OC(C)=O)[C@@H]1OC(C)=O [Example 8, [4-(4-Cyanobenzoyl)phenyl] 2,3,4,6-tetra-O-acetyl-β-D-mannopyranoside] | −17% | 
N#Cc1ccc(C(=O)c2ccc(O[C@@H]3OC[C@H](O)[C@@H](O)[C@@H]3O)cc2)cc1 [Example 15, [4-(4-Cyanobenzoyl)phenyl] α-L-xylopyranoside] | −32% | 
N#Cc1ccc(C(=O)c2ccc(O[C@@H]3OC[C@H](O)[C@H](O)[C@H]3O)cc2)cc1 [Example 19, [4-(4-Cyanobenzoyl)phenyl] α-L-arabinopyranoside] |  | −31* %
CC(=O)O[C@@H]1[C@H](Oc2ccc(C(=O)c3ccc(C#N)cc3)cc2)OC[C@@H](OC(C)=O)[C@H]1OC(C)=O [Example 1, [4-(4-Cyanobenzoyl)phenyl] 2,3,4-tri-O-acetyl-β-D-arabinopyranoside] | −25% | 
CC(=O)O[C@H]1[C@H](Oc2ccc(C(=O)c3ccc(C#N)cc3)cc2)OC[C@@H](OC(C)=O)[C@H]1OC(C)=O [Example 4, [4-(4-Cyanobenzoyl)phenyl] 2,3,4-tri-O-acetyl-β-D-ribopyranoside] | −23% | 
CC(=O)O[C@@H]1[C@H](Oc2ccc(C(=O)c3ccc(C#N)cc3)cc2)OC[C@H](OC(C)=O)[C@H]1OC(C)=O [Example 14, [4-(4-Cyanobenzoyl)phenyl] 2,3,4-tri-O-acetyl-α-L-xylopyranoside] | −36% | 
C[C@@H]1O[C@H](Oc2ccc(C(=O)c3ccc(C#N)cc3)cc2)[C@H](O)[C@H](O)[C@H]1O [Example 17, [4-(4-Cyanobenzoyl)phenyl] β-L-rhamnopyranoside] | −50% | 
N#Cc1ccc(C(=O)c2ccc(O[C@H]3OC[C@H](O)[C@@H](O)[C@@H]3O)cc2)cc1 [Example 13, [4-(4-Cyanobenzoyl)phenyl] β-L-xylopyranoside] | −45% | 
N#Cc1ccc(C(=O)c2ccc(O[C@@H]3OC[C@@H](O)[C@@H](O)[C@H]3O)cc2)cc1 [Example 5, [4-(4-Cyanobenzoyl)phenyl] β-D-ribopyranoside] | −36% | 
CC(=O)OC[C@H]1O[C@@H](Oc2ccc(C(=O)c3ccc(C#N)cc3)cc2)[C@H](OC(C)=O)[C@@H](OC(C)=O)[C@H]1OC(C)=O [Example 6, [4-(4-Cyanobenzoyl)phenyl] 2,3,4,6-tetra-O-acetyl-β-D-galactopyranoside] | −33% | 
N#Cc1ccc(C(=O)c2ccc(O[C@H]3OC[C@H](O)[C@H](O)[C@H]3O)cc2)cc1 [Example 11, [4-(4-Cyanobenzoyl)phenyl] β-L-arabinopyranoside] | −31% | 
CC(=O)O[C@@H]1[C@@H](OC(C)=O)[C@@H](Oc2ccc(C(=O)c3ccc(C#N)cc3)cc2)OC[C@@H]1OC(C)=O [Example 10, [4-(4-Cyanobenzoyl)phenyl] 2,3,4-tri-O-acetyl-β-L-arabinopyranoside] | −22% | 
CC(=O)O[C@@H]1[C@@H](OC(C)=O)[C@H](Oc2ccc(C(=O)c3ccc(C#N)cc3)cc2)OC[C@@H]1OC(C)=O [Example 18, [4-(4-Cyanobenzoyl)phenyl] 2,3,4-tri-O-acetyl-α-L-arabinopyranoside] |  | −2* %
N#Cc1ccc(C(=O)c2ccc(O[C@@H]3O[C@H](CO)[C@H](O)[C@H](O)[C@H]3O)cc2)cc1 [Example 7, [4-(4-Cyanobenzoyl)phenyl] β-D-galactopyranoside] | −32% | 
